Patent US4410513A, “Synthetic peptides having pituitary growth hormone releasing activity” (Beckman Instruments, Inc., priority 1981, dated 1983)
Non-standard residues stand in square brackets, D forms with d. Residues, ends and D or L forms follow the SMILES beside them.

Key:
[1] = test system: pituitaries; assay: In vitro growth hormone release study (incubated rat pituitaries, GH by RIA); assay type: cell-based
Procedure: Female rats at the CD-1 strain were housed in a constant temperature room at 24° C. with 14 hours light and 10 hours darkness. The rats were fed Purina brand rat chow ab libitum. All studies were started between 0800 and 1000 hours.
Pituitaries were removed from 20 day old female rats. In each polytetrafluoroethylene beaker (10 ml) was incubated two pituitaries at 36° C. in 1 ml of lactated Ringer's solution in a Dubnoff Shaker (90 cycles/min.). All medium in each beaker was removed each hour (e.g., P1, P2, I3, I4, I5) and then fresh medium was added back to each beaker. Each medium removed was assayed for GH, in duplicate, by a standard radioimmunoassay (RIA).
The growth hormone agonist of Example 1 was not added to the incubation mediums employed during the first hour of the incubation period (P1) or to the incubation mediums employed during the second hour of the incubation period (P2). The growth hormone agonist of Example 1 was dissolved in dimethylsulfoxide (DMSO; 10:1, agonist:DMSO), added to each incubation medium employed during the third hour of the incubation period (I3), to each medium employed during the fourth hour of the incubation period (I4) and to each medium employed during the fifth hour of the incubation period (I5). The release of growth hormone was recorded as ΔGH and calculated by subtracting the amount of GH released at P2 from that released at I3, I4, and I5. The agonist activity was determined from the release at I3, I4, and I5.
The procedure set forth in Example 11 with one modification was employed in an in vitro growth hormone release study of the peptide of Example 6 and the results therefrom are set forth in Table XI. The sole modification was the deletion of I5 from the procedure of Example 11.
The procedure set forth in Example 11 with one modification was employed in an in vitro growth hormone release study of the peptide of Example 7 and the results therefrom are set forth in Table XII. The sole modification was the deletion of I5 from the procedure of Example 11.

[2] = test system: growth hormone release; assay: In vivo growth hormone release study (serum GH by RIA about 15 minutes after intraperitoneal injection); set-up: species or system rat; settings: 21 day old female rats, serum about 15 minutes after injection, mean of 8 ± SEM, control 4 ± 1
Procedure: Female rats of the CD-1 strain were housed in a constant temperature room at 24° C. with 14 hours light and 10 hours darkness. The rats were fed Purina brand rat chow ab libitum. All studies were started between 0800 and 1000 hours.
Each female rat (21 days old; eight rats per dosage level shown in Table XVI) was intraperitoneally injected with a desired dosage of the peptide of Example 1. Approximately 15 minutes after injection, the rat was guillotined. A blood sample was collected from the guillotined rat. The blood sample was centrifuged and a serum sample was collected therefrom. Each serum sample was assayed for GH, in duplicate, by a standard radioimmunoassay (RIA).

[3] = dosage 1 ng/ml incubation medium, mean of 9 assays (I3, I4, I5 minus P2) ± SEM
[4] = dosage 10 ng/ml incubation medium, mean of 9 assays (I3, I4, I5 minus P2) ± SEM
[5] = dosage 100 ng/ml incubation medium, mean of 9 assays (I3, I4, I5 minus P2) ± SEM
[6] = dosage 1,000 ng/ml incubation medium, mean of 9 assays (I3, I4, I5 minus P2) ± SEM
[7] = dosage 3 ng/ml incubation medium, mean of 9 assays (I3, I4, I5 minus P2) ± SEM
[8] = dosage 30 ng/ml incubation medium, mean of 9 assays (I3, I4, I5 minus P2) ± SEM

Compound	ΔGH [1, 3]	ΔGH [1, 4]	ΔGH [1, 5]	ΔGH [1, 6]	ΔGH [1, 7]	ΔGH [1, 8]	also measured
C[C@H](NC(=O)[C@@H](Cc1c[nH]c2ccccc12)NC(=O)[C@@H](N)Cc1c[nH]cn1)C(=O)N[C@@H](Cc1c[nH]c2ccccc12)C(=O)N[C@H](Cc1ccc(O)cc1)C(N)=O [Example 3, H2 -His-D-Trp-Ala-Trp-D-Tyr-NH2] (H-H[dW]AW[dY]-NH2)	-126 ng/mL	-99 ng/mL	-238 ng/mL	2598 ng/mL	–	–	–
C[C@H](NC(=O)[C@@H](Cc1c[nH]c2ccccc12)NC(=O)[C@@H](N)Cc1ccc(O)cc1)C(=O)N[C@@H](Cc1c[nH]c2ccccc12)C(=O)N[C@H](Cc1c[nH]cn1)C(N)=O [Example 2, H2 -Tyr-D-Trp-Ala-Trp-D-His-NH2] (H-Y[dW]AW[dH]-NH2)	-179 ng/mL	-802 ng/mL	–	–	-192 ng/mL	611 ng/mL	–
C[C@@H](NC(=O)[C@@H](Cc1c[nH]c2ccccc12)NC(=O)[C@@H](N)Cc1ccc(O)cc1)C(=O)N[C@@H](Cc1c[nH]c2ccccc12)C(=O)N[C@H](Cc1ccccc1)C(N)=O [Example 6, H2 -Tyr-D-Trp-D-Ala-Trp-D-Phe-NH2] (H-Y[dW][dA]W[dF]-NH2)	–	–	–	–	–	–	ΔGH ([1]; dosage 300 ng/ml incubation medium, I5 deleted, mean of 6 assays (I3, I4 minus P2) ± SEM): 648 ± 210 ng/mL; ΔGH ([1]; dosage 3,000 ng/ml incubation medium, I5 deleted, mean of 6 assays (I3, I4 minus P2) ± SEM): 435 ± 143 ng/mL; ΔGH ([1]; dosage 30,000 ng/ml incubation medium, I5 deleted, mean of 6 assays (I3, I4 minus P2) ± SEM): 1136 ± 190 ng/mL
C[C@H](NC(=O)[C@@H](Cc1c[nH]c2ccccc12)NC(=O)[C@@H](N)Cc1c[nH]cn1)C(=O)N[C@@H](Cc1c[nH]c2ccccc12)C(=O)N[C@H](Cc1ccccc1)C(N)=O [Example 1, H2 -His-D-Trp-Ala-Trp-D-Phe-NH2] (H-H[dW]AW[dF]-NH2)	206 ng/mL	2,005 ng/ml	–	–	288 ng/mL	3,046 ng/ml	ΔGH ([2]; dosage 0.1 (μg/ml serum)): 1 ± 1 ng/mL; ΔGH ([2]; dosage 1.0 (μg/ml serum)): 2 ± 2 ng/mL; ΔGH ([2]; dosage 10.0 (μg/ml serum)): 2 ± 1 ng/mL; ΔGH ([2]; dosage 100.0 (μg/ml serum)): 82 ± 18 ng/mL
CC(=O)N[C@@H](Cc1ccc(O)cc1)C(=O)N[C@H](Cc1c[nH]c2ccccc12)C(=O)N[C@@H](C)C(=O)N[C@@H](Cc1c[nH]c2ccccc12)C(=O)N[C@H](Cc1ccccc1)C(N)=O [Example 9, CH3 CO-Tyr-D-Trp-Ala-Trp-D-Phe-NH2] (Ac-Y[dW]AW[dF]-NH2)	–	-297 ± 79 ng/mL	–	–	–	-118 ± 97 ng/mL	ΔGH ([1]; dosage 300 ng/ml incubation medium, mean of 9 assays (I3, I4, I5 minus P2) ± SEM): 5 ± 29 ng/mL; ΔGH ([1]; dosage 3,000 ng/ml incubation medium, mean of 9 assays (I3, I4, I5 minus P2) ± SEM): 1594 ± 385 ng/mL; ΔGH ([1]; dosage 30,000 ng/ml incubation medium, mean of 9 assays (I3, I4, I5 minus P2) ± SEM): 1607 ± 250 ng/mL
C[C@H](NC(=O)[C@@H](Cc1c[nH]c2ccccc12)NC(=O)[C@@H](N)Cc1c[nH]cn1)C(=O)N[C@@H](Cc1c[nH]c2ccccc12)C(=O)N[C@H](Cc1c[nH]cn1)C(N)=O [Example 4, H2 -His-D-Trp-Ala-Trp-D-His-NH2] (H-H[dW]AW[dH]-NH2)	-166 ng/mL	-369 ng/mL	43 ng/mL	1501 ng/mL	–	–	–
